Several values for one entry are separate records, joined by “and”; a condition that tells them apart may be missing. Equal values may be shown once. Read-outs that look alike come from different tables or passages of the source.
Target: hCB1 (Homo sapiens, UniProt P21554)
Assay: bioSensAll ebBRET signaling profiling, hCB1
Type: cell-based
Set-up: host or cells: HEK293SL cells, transient PEI transfection
Settings: for RE, relative efficacy: vs CP-55,940; for EC50: read-out: EC50 [95% CI]; for Emax: normalized to CP-55,940

Chain of hCB1 (P21554 whole entry): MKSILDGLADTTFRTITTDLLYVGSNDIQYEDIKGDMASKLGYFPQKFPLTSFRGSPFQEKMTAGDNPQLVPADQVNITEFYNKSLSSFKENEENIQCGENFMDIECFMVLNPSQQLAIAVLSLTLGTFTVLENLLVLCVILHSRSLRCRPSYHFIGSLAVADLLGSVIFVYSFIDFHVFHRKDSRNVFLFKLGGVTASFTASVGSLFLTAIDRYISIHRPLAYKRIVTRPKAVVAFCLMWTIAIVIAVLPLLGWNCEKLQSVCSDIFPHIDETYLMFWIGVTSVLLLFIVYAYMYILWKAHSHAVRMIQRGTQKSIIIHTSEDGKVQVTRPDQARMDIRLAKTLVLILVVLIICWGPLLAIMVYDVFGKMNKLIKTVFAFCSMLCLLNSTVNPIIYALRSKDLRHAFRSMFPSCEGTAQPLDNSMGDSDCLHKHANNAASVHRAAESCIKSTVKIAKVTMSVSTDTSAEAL

SMILES: COC(=O)C(C)(NC(=O)c1cc(C)n(-c2cccc(C(F)(F)F)c2)n1)c1cccs1 (stereo not shown) [‘4042]
- Gz hCB1 (Log [Compound] (M) -6.72585): 96.9343 and 94.4158 and 89.6782
- Barr2+GRK2 hCB1 (Log [Compound] (M) -7.14267): 59.7621 and 50.2774
- G15 hCB1 (Log [Compound] (M) -7.14267): 114.268 and 99.1321
- Gi1 hCB1 (Log [Compound] (M) -7.14267): 107.604 and 101.422 and 97.765
- Gi2 hCB1 (Log [Compound] (M) -7.14267): 109.219 and 83.8759
- GoB hCB1 (Log [Compound] (M) -7.14267): 86.7157 and 119.974 and 89.2869
- Gq hCB1 (Log [Compound] (M) -7.14267): 1043
- Gs hCB1 (Log [Compound] (M) -7.14267): 7002
- Gz hCB1 (Log [Compound] (M) -7.14267): 98.2797 and 100.101 and 88.7145
- Barr2+GRK2 hCB1 (Log [Compound] (M) -7.55284): 52.5063 and 42.0336
- G15 hCB1 (Log [Compound] (M) -7.55284): 113.933 and 98.6587
- Gi1 hCB1 (Log [Compound] (M) -7.55284): 97.1473 and 109.377 and 98.1802
- Gi2 hCB1 (Log [Compound] (M) -7.55284): 110.556 and 82.2578
- GoB hCB1 (Log [Compound] (M) -7.55284): 88.4435 and 120.01 and 87.3057
- Gq hCB1 (Log [Compound] (M) -7.55284): 1071
- Gs hCB1 (Log [Compound] (M) -7.55284): 6586
- Gz hCB1 (Log [Compound] (M) -7.55284): 92.0765 and 86.4032 and 85.0169
- Barr2+GRK2 hCB1 (Log [Compound] (M) -8): 45.4579 and 41.3741
- G15 hCB1 (Log [Compound] (M) -8): 112.381 and 101.184
- Gi1 hCB1 (Log [Compound] (M) -8): 95.7115 and 104.367 and 92.5898
- Gi2 hCB1 (Log [Compound] (M) -8): 103.223 and 88.1181
- GoB hCB1 (Log [Compound] (M) -8): 98.6892 and 112.511 and 89.2869
- Gq hCB1 (Log [Compound] (M) -8): 1060
- Gs hCB1 (Log [Compound] (M) -8): 6741
- Gz hCB1 (Log [Compound] (M) -8): 97.3733 and 99.8321 and 82.6809
- Barr2+GRK2 hCB1 (Log [Compound] (M) -8.22186): 47.6346 and 43.8472
- G13 hCB1 (Log [Compound] (M) -8.22186): 44.4318 and 47.6121
- G15 hCB1 (Log [Compound] (M) -8.22186): 112.142 and 106.076
- Gi1 hCB1 (Log [Compound] (M) -8.22186): 104.327 and 106.186 and 100.167
- Gi2 hCB1 (Log [Compound] (M) -8.22186): 112.022 and 97.4049
- GoB hCB1 (Log [Compound] (M) -8.22186): 115.24 and 97.3514 and 98.8499
- Gq hCB1 (Log [Compound] (M) -8.22186): 1073
- Gs hCB1 (Log [Compound] (M) -8.22186): 6493
- Gz hCB1 (Log [Compound] (M) -8.22186): 122.54 and 109.635 and 78.9413
- Barr2+GRK2 hCB1 (Log [Compound] (M) -8.39794): 32.0865 and 32.6356
- G15 hCB1 (Log [Compound] (M) -8.39794): 101.826 and 96.5808
- Gi1 hCB1 (Log [Compound] (M) -8.39794): 93.4953 and 99.8959 and 97.0977
- Gi2 hCB1 (Log [Compound] (M) -8.39794): 102.295 and 80.9389
- GoB hCB1 (Log [Compound] (M) -8.39794): 81.1381 and 111.288 and 86.2389
- Gq hCB1 (Log [Compound] (M) -8.39794): 1055
- Gs hCB1 (Log [Compound] (M) -8.39794): 6872
- Gz hCB1 (Log [Compound] (M) -8.39794): 84.7686 and 103.436 and 80.0517
- G13 hCB1 (Log [Compound] (M) -8.68787): 39.593 and 30.3572
- G15 hCB1 (Log [Compound] (M) -8.68787): 97.8136 and 87.6381
- Gi1 hCB1 (Log [Compound] (M) -8.68787): 91.7785 and 78.2511 and 91.448
- Gi2 hCB1 (Log [Compound] (M) -8.68787): 95.663 and 73.4469
- GoB hCB1 (Log [Compound] (M) -8.68787): 96.3854 and 73.3436 and 84.1561
- Gq hCB1 (Log [Compound] (M) -8.68787): 1066
- Gs hCB1 (Log [Compound] (M) -8.68787): 6260
- Gz hCB1 (Log [Compound] (M) -8.68787): 96.1128 and 114.514 and 58.5255
- G13 hCB1 (Log [Compound] (M) -9.15521): 17.7531 and 19.6344
- G15 hCB1 (Log [Compound] (M) -9.15521): 67.1744 and 66.4649
- Gi1 hCB1 (Log [Compound] (M) -9.15521): 78.7311 and 50.1158 and 63.8224
- Gi2 hCB1 (Log [Compound] (M) -9.15521): 65.4704 and 47.7485
- GoB hCB1 (Log [Compound] (M) -9.15521): 59.8283 and 42.5561 and 56.6226
- Gq hCB1 (Log [Compound] (M) -9.15521): 1117
- Gs hCB1 (Log [Compound] (M) -9.15521): 6551
- G15 hCB1 (Log [Compound] (M) -9.61989): 31.8785 and 42.2144
- Gi2 hCB1 (Log [Compound] (M) -9.61989): 32.2472 and 21.8596
- GoB hCB1 (Log [Compound] (M) -9.61989): 29.5611 and 20.1669 and 24.5425
- Gq hCB1 (Log [Compound] (M) -9.61989): 1001
- Gs hCB1 (Log [Compound] (M) -9.61989): 6299
- G15 hCB1 (Log [Compound] (M) -10.0969): 15.3529 and 24.9603
- GoB hCB1 (Log [Compound] (M) -10.0969): 15.2383 and 7.632 and 9.061
- Gq hCB1 (Log [Compound] (M) -10.0969): 1213
- Gs hCB1 (Log [Compound] (M) -10.0969): 6447
- Gq hCB1 (Log [Compound] (M) -10.5529): 1076
- Gs hCB1 (Log [Compound] (M) -10.5529): 6140
- Gq hCB1 (Log [Compound] (M) -11.0177): 1045
- Gs hCB1 (Log [Compound] (M) -11.0177): 6569
- Gq hCB1 (Log [Compound] (M) -11.4949): 1094
- Gs hCB1 (Log [Compound] (M) -11.4949): 6245
- Gq hCB1 (Log [Compound] (M) -11.9208): 1111
- Gs hCB1 (Log [Compound] (M) -11.9208): 6591
- Gq hCB1 (Log [Compound] (M) -12.3979): 1117
- Gs hCB1 (Log [Compound] (M) -12.3979): 6511
- Gq hCB1 (Log [Compound] (M) -12.8861): 1023
- Gs hCB1 (Log [Compound] (M) -12.8861): 6621
- pEC50 [95% CI] (hCB1 G13): 8.69 [8.0 – 9.3]
- RE, relative efficacy (hCB1 G13): 0.91
- RE, relative efficacy (hCB1 G15): 0.74
- pEC50 [95% CI] (hCB1 Gi1): 9.32 [9.2 – 9.4]
- RE, relative efficacy (hCB1 Gi1): 0.97
- pEC50 [95% CI] (hCB1 Gi2): 9.25 [9.0 – 9.5]
- RE, relative efficacy (hCB1 Gi2): 1.01
- pEC50 [95% CI] (hCB1 GoB): 9.20 [9.1 – 9.3]
- RE, relative efficacy (hCB1 GoB): 1.04
- RE, relative efficacy (hCB1 Gz): 0.62
- RE, relative efficacy (hCB1 ßarr2+GRK2): 0.81
- EC50 (hCB1 Barr2 + GRK2): 3.6 nM
- EC50 (hCB1 G13): 2.1 nM
- EC50 (hCB1 G15): 0.37 nM
- EC50 (hCB1 GoB): 0.64 nM
- EC50 (hCB1 Gz): 0.43 nM
- Emax (read-out: Emax [95% CI], hCB1 Barr2 + GRK2): 72%
- Emax (read-out: Emax [95% CI], hCB1 G13): 64%
- Emax (read-out: Emax [95% CI], hCB1 G15): 105%
- Emax (read-out: Emax [95% CI], hCB1 Gi2): 101%
- Emax (read-out: Emax [95% CI], hCB1 GoB): 103%
- Emax (read-out: Emax [95% CI], hCB1 Gz): 97%

— PMC11882969 (Nature Communications, 2025)
